Test results reported in US5863913A, “Aromatic compound and pharmaceutical composition” (Kureha Chemical Industry Co., Ltd., priority 1996, dated 1999).

Legend:
[1] = test system: kidney disease model rats; assay: Survival time of kidney diseased animals; type: in vivo, Sprague-Dawley female rats; conditions: 20 mg/kg/day with drinking water, observation period eight weeks (upper limit); control 5.0
Description: (§1) The compounds of the present invention and the reference substance were administered with drinking water to kidney disease model rats, and the action of lowering the blood pressure was observed. The kidney disease model rats were prepared by a ligature of branches of renal artery in accordance with a conventional method. Namely, the left hilum renalis of Sprague-Dawley female rats was exposed under anesthesia, and one of four secondary branches of the renal artery was left unligated, while the remaining three branches were ligated, respectively. After a week, the hilum renalis (artery, vein, and ureter) of the right kidney were further ligated to thereby prepare rats whose renal function was lowered to approximately 1/8 of the normal function. Each group consisted of eight rats. The drugs to be tested (20 mg/kg) were administered to each administering group, and only water was administered to a control group. Two days after the administration, the systolic blood pressure was measured by the tail cuff method using a blood pressure measuring apparatus (UR5000; Ueda).
The kidney disease model rats were prepared as in Example 54. Twenty-two groups (8 rats per group) were prepared in a manner such that there was no major difference between the groups in the serum creatinine value and the blood urea nitrogen value indicating renal function. The rats in each group were allowed to freely take up food. […] To the rats in the control group, only water was administered every day. If kidney diseases are aggravated, the rat will die of uremia. Thus, the survival time was observed as a comprehensive indication of the improvement of the effect on the kidney diseases. The observation period was eight weeks. Thus if all rats survived, the average survival time is eight weeks, and is an upper limit.

[2] = test system: kidney disease model rats; assay: Action to lower blood pressure in kidney disease model rats (tail cuff); type: in vivo, Sprague-Dawley female rats; conditions: systolic, average of 8 rats, 20 mg/kg with drinking water, two days after administration; control 210
Description: as §1

[3] = test system: ICR female mice; assay: Acute toxicity, single oral dose in mice; conditions: mouse, in vivo
Description: The aromatic compounds of the formula (I) according to the present invention were orally administered to mice at the dose of 500 mg/kg, but no fatalities were observed over a period of one week.
Five-week-old ICR female mice (5 mice per group) were bred for acclimation for a week. Then, the compounds of the present invention were dissolved in water, and orally administered to the mice in a single dosage (500 mg/kg).

[4] = test system: kidney disease model rats; assay: Renal function indicatory value in kidney disease model rats; type: in vivo, Sprague-Dawley female rats; conditions: 20 mg/kg/day with drinking water, six weeks; for Creatinine clearance: 24 hours urine, control 0.22; for Creatinine / Blood urea nitrogen: serum; for Creatinine: control 2.0; for Blood urea nitrogen: control 100
Description: as §1, with “The” for “The compounds of the present invention and the reference substance were administered with drinking water to kidney disease model rats, and the action of lowering the blood pressure was observed. The”
The rats in each group were allowed to freely take up food. […] To the rats in the control group, only water was administered every day. After six weeks, 0.2 ml of blood was collected from the carotid artery of the rats under anesthesia, and centrifuged to obtain serum. Using 25 μl of the serum, the serum creatinine (Scr) was measured by a creatinine analytical instrument (Beckman). Using 10 μl of the serum, the blood urea nitrogen (BUN) was measured by a BUN analytical instrument (Beckman). The creatinine clearance was evaluated as follows:
After the serum creatinine measurement, rats were placed in urinary metabolic cages for 24 hours to collect urine. A urinary creatine concentration (Ucr) was measured by a creatinine analytical instrument, and a total volume of urination (Uvol) was also measured. The creatinine clearance (CCr) was calculated by the following formula: [formula]

[5] = molecular target: T1, angiotensin II receptor subtype 1 (AT1) (Oryctolagus cuniculus, UniProt P34976); assay: Binding to receptors: angiotensin II receptor subtype 1 (AT1); design: species or system rabbits (adrenal glands); conditions: rabbit adrenal glands, tracer 3H-angiotensin II
T1 construct: receptor : from adrenal glands in rabbits; from tissue; host or cells: rabbit adrenal glands
T1 sequence (P34976 1-359): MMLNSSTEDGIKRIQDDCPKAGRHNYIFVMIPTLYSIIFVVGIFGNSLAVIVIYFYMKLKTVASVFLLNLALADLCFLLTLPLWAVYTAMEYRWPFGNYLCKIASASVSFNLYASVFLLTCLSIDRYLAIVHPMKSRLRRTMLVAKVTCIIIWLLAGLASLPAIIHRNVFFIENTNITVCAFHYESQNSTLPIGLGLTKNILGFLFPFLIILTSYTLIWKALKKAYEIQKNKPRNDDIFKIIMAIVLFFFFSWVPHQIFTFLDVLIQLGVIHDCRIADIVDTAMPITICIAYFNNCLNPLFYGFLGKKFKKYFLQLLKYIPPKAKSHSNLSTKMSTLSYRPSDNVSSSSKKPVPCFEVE
Description: In this Example, the affinity to the angiotensin II receptor subtype 1 or subtype 2 was evaluated by a binding assay in accordance with the method described in Biochem. Pharmacol., 33, 4057-4062 (1984).
Specifically, the measurement of the total binding in the presence of each drug was performed as follows:
A mixture (final volume=0.25 ml) of a drug in a given concentration (the drug was dissolved in DMSO, and diluted to a double volume with a buffer attached to a drug discovery system to prepare a sample for the assay; 0.025 ml), a tracer (0.025 ml), and receptors (0.2 ml) was incubated [in the case of the angiotensin II receptor subtype 1 (AT1), at room temperature for 3 hours, and in the case of the subtype 2 (AT2), at 37° C. for 1 hour]. Then, the reaction mixture was filtered with suction (GF/C filter was used in AT1, and GF/B filter was used in AT2). The filter papers after filtration with suction (the tracer bound to the receptors) were counted by a γ-well counter (ARC-500, Aloka). The non-specific bindings were measured by repeating the above method, except that a large excess amount of a displacer was added. The specific binding of the drug in the given concentration was calculated by subtracting the non-specific binding from the total binding, respectively.
receptor : from adrenal glands in rabbits
tracer : ^3 Hangiotensin II

Structure (SMILES) | Average survival time [1] [weeks] | Blood Pressure [2] [mmHg] | Number of deaths/number of survivals [3] | Creatinine clearance [4] [mL/min] | Creatinine [4] [mg/dL] | Blood urea nitrogen [4] [mg/dL] | inhibition at 100 µM [5] [%]
CCCCCCC(=O)N(Cc1ccc(C(=O)O)cc1)c1cc(C(=O)N2CCN(C)CC2)ccc1N(C)C [Compound No. 13, 3-[[(4-carboxyohenyl)methyl]n-heptanamido]-4-dimethylaminobenzoic acid 4'-methylpiperazide] | 6.9 | 208 | 0/5 | 0.32 | 1.5 | 77 | 0
CCCCC(=O)N(Cc1ccc(C(=O)OCCCN)cc1)c1cc(C(=O)N2CCOCC2)ccc1N(C)C [Compound No. 3, 3-N-[[[4-(3'-aminopropoxycarbonyl)phenyl]methyl]valeramido]-4-dimethylaminobenzoic acid morpholide] | 6.9 | 203 | 0/5 | 0.33 | 1.3 | 78 | 0
CCCCCCC(=O)N(Cc1ccc(C(=O)O)cc1)c1cc(C(=O)N2CCN(C)CC2)ccc1C(C)C [Compound No. 18, 3-N-[[(4-carboxyphenyl)methyl]n-heptanamido]-4-i-propylbenzoic acid 4'-methylpiperazide] | 7.0 | 210 | 0/5 | 0.32 | 1.4 | 76 | 11
CCCCC(=O)N(Cc1ccc(C(=O)O)cc1)c1cc(C(=O)N2CCN(CCC)CC2)ccc1C(C)C [Compound No. 19, 3-[[(4-carboxyphenyl)methyl]valeramido]-4-i-propylbenzoic acid 4'-n-propylpiperazide] | 7.2 | 194 | 0/5 | 0.33 | 1.3 | 76 | 11
CCCCC(=O)N(Cc1ccc(C(=O)OCCN(C)C)cc1)c1cc(C(=O)N2CCOCC2)ccc1N(C)C [Compound No. 1, 4-dimethylamino-3-N-[[[4-(2'-dimethylaminoethoxycarbonyl)phenyl]methyl]valeramido]benzoic acid morpholide] | 7.5 | 205 | 0/5 | 0.47 | 1.2 | 62 | 10
CCCCCCC(=O)N(Cc1ccc(C(=O)O)cc1)c1cc(C(=O)N2CCN(CCC)CC2)ccc1N(C)C [Compound No. 12, 4-dimethylamino-3-N-[[(4-carboxyphenyl)methyl]n-heptanamido]benzoic acid 4'-n-propyl piperazide] | 7.0 | 202 | 0/5 | 0.35 | 1.3 | 80 | 0
CCCCC(=O)N(Cc1ccc(C(=O)OCCN(C)C)cc1)c1cc(C(=O)N2CCOCC2)ccc1C(C)C [Compound No. 6, 3-N-[[[4-(2'-dimethylaminoethoxycarbonyl)phenyl]methyl]valeramido]-4-i-propylbenzoic acid morpholide] | 7.0 | 209 | 0/5 | 0.33 | 1.3 | 75 | 11
CCCCC(=O)N(Cc1ccc(C(=O)OCCCN(C)C)cc1)c1cc(C(=O)N2CCOCC2)ccc1C(C)C [Compound No. 7, 3-N-[[[4-(3'-dimethylamino-1'-propoxycarbonyl)phenyl]methyl]valeramido]-4-i-propylbenzoic acid morpholide] | 6.9 | 206 | 0/5 | 0.32 | 1.4 | 76 | 14
CCCCC(=O)N(Cc1ccc(C(=O)O)cc1)c1cc(C(=O)N2CCN(C)CC2)ccc1C(C)C [Compound No. 15, 3-[[(4-carboxyphenyl)methyl]valeramido]-4-i-propylbenzoic acid 4'-methylpiperazide] | 6.1 | 200 | 0/5 | 0.26 | 1.8 | 90 | 0
CCCCC(=O)N(Cc1ccc(C(=O)OCCN2CCOCC2)cc1)c1cc(C(=O)N2CCOCC2)ccc1C(C)C [Compound No. 9, 3-N-[[[4-(2'-morpholinoethoxycarbonyl)phenyl]methyl]valeramido]-i-propylbenzoic acid morpholide] | 6.9 | 207 | 0/5 | 0.31 | 1.6 | 83 | 13
CCCCCCC(=O)N(Cc1ccc(C(=O)O)cc1)c1cc(C(=O)N2CCN(CCC)CC2)ccc1C(C)C [Compound No. 20, 3-N-[[(4-carboxyphenyl)methyl]n-heptanamido]-4-i-propylbenzoic acid 4'-n-propylpiperazide] | 7.3 | 209 | 0/5 | 0.32 | 1.3 | 75 | 0
